Calls of active or inactive are those of the source. No cut-off for these calls is given here.
Key:
[1] = tested on: Plasmodium berghei; assay: Inhibition of Plasmodium berghei trophozoite cytochrome oxidase at 1 mM after 30 min by osmium black staining
[2] = tested on: Plasmodium berghei; assay: Inhibition of Plasmodium berghei trophozoite cytochrome oxidase at 100 nM after 30 min by osmium black staining
[3] = tested on: Plasmodium berghei; assay: Inhibition of Plasmodium berghei trophozoite cytochrome oxidase after 30 min by osmium black staining
[4] = tested on: Plasmodium berghei; assay: Inhibition of cytochrome oxidase in intraerythrocytic trophozoite of Plasmodium berghei infected CF1 mice (Mus musculus) at 100 mg/kg intravenous dose; assay type: functional, organism-based; set-up: dose 100 mg/kg

For `C[C@H]1[C@H](OC(=O)CCC(=O)O)O[C@@H]2O[C@@]3(C)CC[C@H]4[C@H](C)CC[C@@H]1[C@@]24OO3`, the Activity [1] was “Active”, the Activity [2] was “inactive” and the Activity [3] was “Dose-dependent effect”. For the same compound, the Activity [4] was “Active”.
